Reference: ChEMBL document CHEMBL1201862, “PubChem BioAssay data set” (2004)
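Each compound was tested at five concentrations against cells in 96-well plates for 48 hours. GI50 = concentration required for 50% inhibition of growth.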 Calls of active or inactive are those of the source. Rule as the data show it: active = GI50 up to about 1.1 µM and inactive = higher.

How the values were obtained:
Experiment in all cases: growth of human tumour cells (NCI), 48 h
MOLT-4 = tested on: MOLT-4
Malme-3M = tested on: Malme-3M
HCT-15 = tested on: HCT-15
SW-620 = tested on: SW-620
SF-295 = tested on: SF-295
SF-268 = tested on: SF-268
M19-MEL = tested on: M19-MEL
HT-29 = tested on: HT-29
RXF 393 = tested on: RXF 393
SR = tested on: SR
HL-60 = tested on: HL-60
A498 = tested on: A498
K562 = tested on: K562
SF-539 = tested on: SF-539
RPMI-8226 = tested on: RPMI-8226
UACC-62 = tested on: UACC-62

| SMILES | GI50 (MOLT-4) | GI50 (Malme-3M) | GI50 (HCT-15) | GI50 (SW-620) | GI50 (SF-295) | GI50 (SF-268) | GI50 (M19-MEL) | GI50 (HT-29) | GI50 (RXF 393) | GI50 (SR) | GI50 (HL-60) | GI50 (A498) | GI50 (K562) | GI50 (SF-539) | GI50 (RPMI-8226) | GI50 (UACC-62) |
| --- | --- | --- | --- | --- | --- | --- | --- | --- | --- | --- | --- | --- | --- | --- | --- | --- |
| CCOC(=O)c1cc2c(nc1N)-c1ncccc1CC2 | 47.6 µM (inactive) | > 100 µM (inactive) | 32 µM | 59.8 µM (inactive) | 54.5 µM (inactive) | > 100 µM (inactive) | 89.5 µM (inactive) | 16.4 µM (inactive) | > 100 µM (inactive) | 18.7 µM (inactive) | 28.1 µM (inactive) | 76.7 µM (inactive) | 27 µM (inactive) | > 100 µM (inactive) | 22.6 µM (inactive) | 58.1 µM (inactive) |
| CC1CCC(=O)NCCCCC(=O)N1 (stereo not given) | > 100 µM (inactive) | > 100 µM (inactive) | – | > 100 µM (inactive) | > 100 µM (inactive) | > 100 µM (inactive) | > 100 µM (inactive) | > 100 µM (inactive) | > 100 µM (inactive) | > 100 µM (inactive) | > 100 µM (inactive) | > 100 µM (inactive) | > 100 µM (inactive) | > 100 µM (inactive) | > 100 µM (inactive) | > 100 µM (inactive) |
| O=C(c1cc2ccccc2o1)N(Cc1ccccc1)c1ccccc1 | 16.6 µM (inactive) | 23.7 µM (inactive) | 18 µM | 15.8 µM (inactive) | 34.4 µM (inactive) | 41.4 µM (inactive) | 21.7 µM (inactive) | 22.8 µM (inactive) | 26 µM (inactive) | 26.9 µM (inactive) | 16.4 µM (inactive) | 34.4 µM (inactive) | 15 µM (inactive) | – | 18.2 µM (inactive) | 14.4 µM (inactive) |
| CCOP(=O)(C/C(O)=C1\C(=O)C(CCCCNC(=O)OC(C)(C)C)N(Cc2ccccc2)C1=O)OCC (stereo not given) | 78.7 µM (inactive) | > 100 µM (inactive) | – | – | > 100 µM (inactive) | > 100 µM (inactive) | > 100 µM (inactive) | > 100 µM (inactive) | > 100 µM (inactive) | 69.2 µM (inactive) | 63.7 µM (inactive) | > 100 µM (inactive) | > 100 µM (inactive) | > 100 µM (inactive) | > 100 µM (inactive) | > 100 µM (inactive) |
